Measured values reported in publication PMC4042160, “In silico, in vitro and cellular analysis with a kinome-wide inhibitor panel correlates cellular LRRK2 dephosphorylation to inhibitor activity on LRRK2” (Frontiers in Molecular Neuroscience, 2014).
Read-outs that look alike come from different tables or passages of the source.

Legend:
[1] = target: T1, full length LRRK2 protein (Homo sapiens, UniProt Q5S007); test: In vitro LRRKtide kinase assay with full length recombinant LRRK2, dose-response (IC50/pIC50); type: biochemical
T1 construct: compounds were tested in triplicate with full length LRRK2 protein; made in house

LRRK2 phospho-Ser935 = target: T2, LRRK2 phospho-Ser935 (Homo sapiens, UniProt Q5S007); test: Cellular LRRK2 phosphoserine 935 dephosphorylation spotblot assay in SH-SY5Y cells stably expressing 3xFlag-LRRK2; type: cell-based; details: for Phosphorylation level relative to solvent (%) (cellular pS935 assay): @ 5 μM for 2 h, SH-SY5Y stably expressing LRRK2, pS935/total LRRK2; for Cellular pS935 (% @ 5 μM): pS935 level as % of control, 5 μM for 2 h
T2 construct: expressed in transfected cells

LRRK2 = details: 2011, read-out: IC50 in vitro LRRK2, published, cited from earlier work
LRRK2 pS935 [2] = tested on: LRRK2 pS935; design: method as in Dzamko et al., 2010; Deng et al., 2011; details: ref Dzamko et al., 2010; Deng et al., 2011; read-out: IC50 pS935 levels, western blot; cited from earlier work
LRRK2 pS935 [3] = tested on: LRRK2 pS935; design: method as in Hermanson et al., 2012; details: ref Hermanson et al., 2012; read-out: IC50 pS935 levels, time-resolved FRET; cited from earlier work
LRRK2 pS935 [4] = tested on: LRRK2 pS935; design: method as in Delbroek et al., 2013; details: ref Delbroek et al., 2013; read-out: IC50 pS935 levels, ELISA; cited from earlier work
[5] = target: T3, GST-tagged truncated LRRK2 containing residues 970 to 2527 (Homo sapiens, UniProt Q5S007); test: In vitro LRRKtide peptide-substrate kinase assay, single dose testing (10 μM); type: biochemical; details: LRRKtide assay @ 10 μM inhibitor; GST-LRRK2 970-2527; 10 μM ATP; mean, N = 3; solvent control = 100%
T3 construct: GST-tagged truncated LRRK2 containing residues 970 to 2527 (Life Technologies); purchased Life Technologies

[6] = LRRKtide phosphorylation, dose-response
[7] = LRRKtide phosphorylation, dose-response, read-out: IC50 in vitro (lrrktide)
[8] = SH-SY5Y cells with stable expression of LRRK2
[9] = pS935 dephosphorylation, SH-SY5Y cells with stable expression of LRRK2
[10] = pS935 dephosphorylation, SH-SY5Y cells with stable expression of LRRK2, read-out: IC50 cellular (pS935)

T2 sequence (Q5S007 whole entry): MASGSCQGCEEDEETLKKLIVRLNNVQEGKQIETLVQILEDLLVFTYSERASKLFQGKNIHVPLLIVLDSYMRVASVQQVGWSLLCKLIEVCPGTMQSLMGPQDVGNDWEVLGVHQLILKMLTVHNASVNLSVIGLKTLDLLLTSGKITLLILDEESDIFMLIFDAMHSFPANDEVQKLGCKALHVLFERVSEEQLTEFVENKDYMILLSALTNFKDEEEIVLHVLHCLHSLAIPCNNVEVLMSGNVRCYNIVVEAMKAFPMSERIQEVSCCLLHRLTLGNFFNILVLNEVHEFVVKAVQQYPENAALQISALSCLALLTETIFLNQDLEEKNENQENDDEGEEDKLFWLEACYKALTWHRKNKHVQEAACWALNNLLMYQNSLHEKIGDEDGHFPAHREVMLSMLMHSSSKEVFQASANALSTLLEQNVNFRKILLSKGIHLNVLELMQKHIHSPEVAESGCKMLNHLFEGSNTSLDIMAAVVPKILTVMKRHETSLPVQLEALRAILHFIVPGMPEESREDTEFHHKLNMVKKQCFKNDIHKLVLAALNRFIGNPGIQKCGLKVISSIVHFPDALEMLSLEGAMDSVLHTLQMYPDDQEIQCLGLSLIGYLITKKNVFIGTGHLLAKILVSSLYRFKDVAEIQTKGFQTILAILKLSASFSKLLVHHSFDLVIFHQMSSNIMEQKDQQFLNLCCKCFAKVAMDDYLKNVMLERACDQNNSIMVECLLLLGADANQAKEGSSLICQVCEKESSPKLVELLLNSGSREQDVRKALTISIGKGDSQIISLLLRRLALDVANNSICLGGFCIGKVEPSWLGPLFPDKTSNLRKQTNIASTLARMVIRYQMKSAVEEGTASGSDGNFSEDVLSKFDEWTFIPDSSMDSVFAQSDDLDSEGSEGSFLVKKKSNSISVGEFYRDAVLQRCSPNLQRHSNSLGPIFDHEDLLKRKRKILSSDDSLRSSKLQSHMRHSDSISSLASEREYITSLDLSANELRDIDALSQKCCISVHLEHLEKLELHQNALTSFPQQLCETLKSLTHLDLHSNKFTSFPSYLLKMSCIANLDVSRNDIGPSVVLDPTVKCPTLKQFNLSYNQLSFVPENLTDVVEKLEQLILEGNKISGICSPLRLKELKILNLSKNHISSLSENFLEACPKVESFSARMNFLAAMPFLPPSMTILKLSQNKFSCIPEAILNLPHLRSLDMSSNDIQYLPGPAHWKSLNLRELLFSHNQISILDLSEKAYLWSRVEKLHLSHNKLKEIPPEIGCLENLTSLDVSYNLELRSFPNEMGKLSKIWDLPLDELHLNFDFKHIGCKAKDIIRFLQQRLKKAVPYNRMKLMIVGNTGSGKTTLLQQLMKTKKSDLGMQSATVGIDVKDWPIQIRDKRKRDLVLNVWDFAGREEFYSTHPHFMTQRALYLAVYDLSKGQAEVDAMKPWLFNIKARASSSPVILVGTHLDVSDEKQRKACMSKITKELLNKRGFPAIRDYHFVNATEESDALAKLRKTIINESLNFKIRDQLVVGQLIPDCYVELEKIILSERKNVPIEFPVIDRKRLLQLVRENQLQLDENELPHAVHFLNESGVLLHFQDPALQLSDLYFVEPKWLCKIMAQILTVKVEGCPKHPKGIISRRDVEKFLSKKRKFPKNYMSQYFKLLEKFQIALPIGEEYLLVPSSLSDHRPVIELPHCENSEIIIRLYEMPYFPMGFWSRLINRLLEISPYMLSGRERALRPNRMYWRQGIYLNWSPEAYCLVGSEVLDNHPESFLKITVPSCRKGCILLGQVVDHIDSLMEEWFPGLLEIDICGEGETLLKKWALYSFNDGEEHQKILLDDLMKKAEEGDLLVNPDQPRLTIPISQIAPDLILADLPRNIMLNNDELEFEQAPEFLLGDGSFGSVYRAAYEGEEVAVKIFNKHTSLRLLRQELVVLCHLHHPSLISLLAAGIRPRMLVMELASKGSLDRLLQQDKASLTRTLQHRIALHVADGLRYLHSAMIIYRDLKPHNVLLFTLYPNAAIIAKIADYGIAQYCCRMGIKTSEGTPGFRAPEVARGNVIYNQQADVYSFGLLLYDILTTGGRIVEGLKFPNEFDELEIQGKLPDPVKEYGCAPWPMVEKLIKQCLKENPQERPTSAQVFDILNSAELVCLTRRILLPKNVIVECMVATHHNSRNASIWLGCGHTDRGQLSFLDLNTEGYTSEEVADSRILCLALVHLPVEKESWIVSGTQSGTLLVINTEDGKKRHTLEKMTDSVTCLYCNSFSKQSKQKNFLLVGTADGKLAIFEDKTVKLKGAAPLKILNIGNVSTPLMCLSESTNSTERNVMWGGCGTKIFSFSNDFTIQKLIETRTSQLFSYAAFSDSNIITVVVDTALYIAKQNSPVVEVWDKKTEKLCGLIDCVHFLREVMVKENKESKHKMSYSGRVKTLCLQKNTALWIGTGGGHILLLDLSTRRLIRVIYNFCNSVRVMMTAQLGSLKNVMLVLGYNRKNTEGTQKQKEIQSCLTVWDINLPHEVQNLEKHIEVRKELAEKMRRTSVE
T1 sequence (Q5S007 whole entry): as above
T3 sequence (Q5S007 970-2527): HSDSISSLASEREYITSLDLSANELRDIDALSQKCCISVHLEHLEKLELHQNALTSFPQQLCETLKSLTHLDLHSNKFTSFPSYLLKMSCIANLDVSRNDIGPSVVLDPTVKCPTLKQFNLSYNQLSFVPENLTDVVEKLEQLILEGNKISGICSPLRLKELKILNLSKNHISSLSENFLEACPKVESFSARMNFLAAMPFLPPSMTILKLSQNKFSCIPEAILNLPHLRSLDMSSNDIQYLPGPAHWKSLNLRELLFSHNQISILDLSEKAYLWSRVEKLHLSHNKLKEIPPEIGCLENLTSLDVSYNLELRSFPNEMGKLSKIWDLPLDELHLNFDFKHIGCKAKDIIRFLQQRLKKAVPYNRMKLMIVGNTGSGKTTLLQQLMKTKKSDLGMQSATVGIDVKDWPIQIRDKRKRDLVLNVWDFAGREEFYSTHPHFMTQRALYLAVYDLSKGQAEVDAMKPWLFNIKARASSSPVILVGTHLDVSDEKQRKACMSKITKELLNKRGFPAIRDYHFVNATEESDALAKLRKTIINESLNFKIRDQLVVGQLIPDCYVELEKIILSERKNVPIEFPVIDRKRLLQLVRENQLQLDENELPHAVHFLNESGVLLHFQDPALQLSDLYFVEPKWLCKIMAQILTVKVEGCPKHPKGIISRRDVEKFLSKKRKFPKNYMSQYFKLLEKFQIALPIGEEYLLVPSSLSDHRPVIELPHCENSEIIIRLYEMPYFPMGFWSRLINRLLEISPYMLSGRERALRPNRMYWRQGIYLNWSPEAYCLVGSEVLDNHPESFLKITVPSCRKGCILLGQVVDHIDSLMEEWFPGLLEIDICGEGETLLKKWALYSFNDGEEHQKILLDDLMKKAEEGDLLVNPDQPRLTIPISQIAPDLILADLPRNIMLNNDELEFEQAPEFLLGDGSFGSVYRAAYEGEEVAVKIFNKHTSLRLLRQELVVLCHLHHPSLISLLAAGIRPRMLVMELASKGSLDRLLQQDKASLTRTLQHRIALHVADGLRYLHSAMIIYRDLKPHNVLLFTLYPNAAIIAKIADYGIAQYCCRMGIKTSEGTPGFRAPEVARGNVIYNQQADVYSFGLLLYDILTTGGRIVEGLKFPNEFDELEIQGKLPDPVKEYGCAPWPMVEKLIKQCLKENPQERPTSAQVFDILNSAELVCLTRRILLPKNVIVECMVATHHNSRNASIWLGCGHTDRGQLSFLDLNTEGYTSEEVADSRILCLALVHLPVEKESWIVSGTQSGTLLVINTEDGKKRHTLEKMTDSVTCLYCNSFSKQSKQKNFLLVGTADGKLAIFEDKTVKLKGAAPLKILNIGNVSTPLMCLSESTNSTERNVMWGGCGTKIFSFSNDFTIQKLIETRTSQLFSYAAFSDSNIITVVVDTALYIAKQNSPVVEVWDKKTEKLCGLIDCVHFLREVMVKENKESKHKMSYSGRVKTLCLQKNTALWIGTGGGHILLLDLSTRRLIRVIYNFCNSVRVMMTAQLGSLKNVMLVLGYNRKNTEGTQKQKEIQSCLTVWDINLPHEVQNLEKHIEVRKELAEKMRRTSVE

| Molecule | % LRRKtide phosphorylation relative to solvent [5] [%] | pIC50 in vitro (lrrktide) [1, 6] | IC50 [1, 7] [nM] | Phosphorylation level relative to solvent (%) (cellular pS935 assay) (LRRK2 phospho-Ser935) | Cellular pS935 (% @ 5 μM) (LRRK2 phospho-Ser935; [8]) [%] | other results |
| --- | --- | --- | --- | --- | --- | --- |
| COc1cc(N2CCOCC2)ccc1Nc1ncc(F)c(Nc2ccccc2NS(C)(=O)=O)n1 [CZC-25146] | – | – | – | – | – | IC50 ([1]; read-out: IC50 (LRRKtide phosphorylation assay)): 1.78 nM; IC50 (LRRK2 phospho-Ser935; read-out: IC50 of phosphorylation at LRRK2 Ser935 (cellular spotblot)): 61 nM; IC50 (LRRK2; ref Ramsden et al.): 4.76 nM |
| COc1cc(C(=O)N2CCC(N3CCN(C)CC3)CC2)ccc1Nc1ncc2c(n1)N(C)c1ccccc1C(=O)N2C [LRRK2-IN1] | – | – | – | – | – | IC50 ([1]; full length LRRK2, 10 μM ATP, read-out: IC50 (LRRKtide phosphorylation assay)): 3.54 nM; IC50 (LRRK2 phospho-Ser935; SH-SY5Y stably overexpressing 3flag-LRRK2 WT, N ≥ 5, read-out: IC50 of phosphorylation at LRRK2 Ser935 (cellular spotblot)): 239 nM; IC50 (LRRK2; 100 μM ATP in original study, ref Deng et al.): 13 nM; IC50 (LRRK2 pS935 [2]): ~100 nM; IC50 (LRRK2 pS935 [3]): 90 to 200 nM; IC50 (LRRK2 pS935 [4]): 50 to 100 nM |
| COc1cc2ncnc(Nc3ccc(Oc4ccccc4)cc3)c2cc1OC [Src kinase inhibitor I] | 27.12 | 6.03 | 936 | 61.51 | 61.51 | – |
| BPIQ-I | 17.30 | 5.12 | 7650 | 88.55 | 88.55 | – |

The next lines start with results.

| % LRRKtide phosphorylation relative to solvent [5] [%] | pIC50 in vitro (lrrktide) [1, 6] | IC50 [1, 7] [nM] | Phosphorylation level relative to solvent (%) (cellular pS935 assay) (LRRK2 phospho-Ser935) | Cellular pS935 (% @ 5 μM) (LRRK2 phospho-Ser935; [8]) [%] | Molecule | other results |
| --- | --- | --- | --- | --- | --- | --- |
| 2.19 | 6.56 | 273 | 45.08 | 45.08 | Cc1cc(C)c(/C=C2\C(=O)Nc3ccccc32)[nH]1 [VEGF receptor 2 kinase inhibitor III] | pIC50 cellular (pS935) (LRRK2 phospho-Ser935; [9]): <5.7; IC50 (LRRK2 phospho-Ser935; [10]): > 2000 nM |
| 4.13 | 7.44 | 36.3 | 37.26 | 37.26 | O=C1Nc2ccc(Br)cc2/C1=C/c1cc2c([nH]1)CCCC2 [VEGF receptor 2 kinase inhibitor II] | pIC50 cellular (pS935) (LRRK2 phospho-Ser935; [9]): <5.7; IC50 (LRRK2 phospho-Ser935; [10]): > 2000 nM |
| 26.67 | 7.61 | 24.6 | 60.83 | 60.83 | CCOC(=O)c1c(C)[nH]c(/C=C2\C(=O)Nc3ccccc32)c1C [VEGF receptor 2 kinase inhibitor I] | – |
